Common to all, as to test: growth of human tumour cells (NCI), 48 h
Assay [1] has as its system HCT-116 colon.
The test system of assay [2] is SN12C renal.
In assay [3] the test system is U251 CNS.
Assay [4] deals with 786-0 renal.
The test system of assay [5] is SF-268 CNS.
Assay [6] deals with HS 578T breast.
The test system of assay [7] is KM12 colon.
Assay [8] concerns NCI-H23 lung.
The test system of assay [9] is A549 NSCLC.
Assay [10] relates to K-562 leukemia.
The subject of assay [11] is MDA-N.
The test system of assay [12] is BT-549 breast.
Assay [13] relates to DU-145 prostate.
In assay [14] the test system is ACHN renal.
The subject of assay [15] is HOP-62 NSCLC.
For assay [16], the system named is COLO 205 colon.
For assay [17], the system named is UACC-62 melanoma.
Assay [18] relates to CAKI-1 renal.
Assay [19] deals with OVCAR-5 ovarian.
The subject of assay [20] is LXFL 529 NSCLC.

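Compound exposure: 48 hours, 5 concentrations, 96-well plates. TGI denotes the concentration required for complete inhibition of growth.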

For the compound `O=C(O)c1cc2c(cc1CC(Cc1ccc3c(c1)CCCC3)C(=O)O)CCCC2` (stereo unspecified), the TGI in assay [1], in assay [2], in [3], in assay [4], in [5] and in assay [6] was greater than 100 µM each time. Moreover, the TGI in [7], in assay [8], in assay [9], in assay [10], in assay [11] and in assay [12] was greater than 100 µM in each case. Moreover, the TGI in assay [13], in [14], in [15], in assay [16], in assay [17] and in assay [18] was greater than 100 µM throughout. This compound gave a TGI in assay [19] greater than 100 µM.
As for `CC1=NNC(=O)C1C1CC(c2c[nH]c3ccccc23)=NN(C(N)=O)C1=O` (stereo unspecified), the TGI in assay [1], in assay [2], in assay [3], in assay [4], in [5] and in assay [6] was greater than 100 µM each time. The TGI is 88.3 µM in assay [7]; greater than 100 µM in assay [8]; greater than 100 µM in assay [9]; greater than 100 µM in [10]; greater than 100 µM in [11]; greater than 100 µM in assay [12]. The TGI in assay [13], in [14], in assay [15], in [16], in assay [17] and in [18] was greater than 100 µM throughout. In assay [19], this compound gave a TGI greater than 100 µM.
For the compound `CCOC(=O)Cc1csc(Nc2ccc(OCC)cc2)n1`, the TGI in assay [1], in [2], in [3], in assay [4], in assay [5] and in assay [7] was greater than 100 µM each time. The TGI in assay [8], in [9], in assay [10], in [14], in assay [15] and in assay [16] was greater than 100 µM in each case. In assay [20], this compound yielded a TGI greater than 100 µM.
For the compound `CC(=O)OCC1OC(n2c3c(cc(C#N)c2=S)CCC3)C(OC(C)=O)C(OC(C)=O)C1OC(C)=O` (stereo unspecified), the TGI in assay [1], in assay [2], in [3], in [4], in [5] and in [6] was greater than 100 µM in each case. In addition, the TGI in assay [7], in [8], in assay [9], in assay [10], in [11] and in [12] was greater than 100 µM in each case. The TGI in assay [13], in [14], in assay [15], in assay [16], in assay [17] and in assay [18] was greater than 100 µM each time. In assay [19], this compound displayed a TGI greater than 100 µM.
Consider `COc1cc(O)c2c(c1)O[C@@H]1OCC[C@H]21`, for which the TGI in assay [1], in [2], in assay [3], in assay [4], in assay [7] and in [8] was greater than 100 µM throughout. Also, the TGI in assay [9], in [10], in [14], in assay [15], in [16] and in assay [17] was greater than 100 µM throughout. Also, the TGI in assay [20] and in [19] was greater than 100 µM in each case.
In the case of `CN(C)CCCNC(=O)CCNC(=O)c1cc(NC(=O)c2cc(NC(=O)c3cc(NC(=O)c4nccn4C)cn3C)cn2C)cn1C`, the TGI in assay [1], in assay [2], in assay [3], in assay [4], in assay [5] and in assay [6] was greater than 100 µM each time. In addition, the TGI in assay [7], in assay [8], in assay [9], in assay [10], in [11] and in assay [12] was greater than 100 µM each time. Also, the TGI in assay [13], in assay [14], in assay [15], in [16], in [17] and in assay [18] was greater than 100 µM each time. Moreover, in assay [19], the TGI was greater than 100 µM.
As for `COc1ccc(-c2c3c(n(C4OC(COC(C)=O)C(OC(C)=O)C(OC(C)=O)C4OC(C)=O)c(=S)c2C#N)CCC3)cc1` (stereo unspecified), the TGI in assay [1], in assay [2], in [3], in assay [4], in assay [5] and in assay [6] was greater than 100 µM throughout. Besides, the TGI in assay [7], in assay [8], in assay [9], in assay [10], in [11] and in [12] was greater than 100 µM each time. Also, the TGI in [13], in assay [14], in [15], in assay [16], in [17] and in assay [18] was greater than 100 µM throughout. This compound also showed a TGI in assay [19] greater than 100 µM.
In the case of `O=C(SC1=NCCN1)c1cccc2ccccc12`, the TGI in assay [1], in assay [2], in assay [3], in [4], in [5] and in assay [6] was greater than 100 µM in each case. For the same compound, the TGI was greater than 100 µM in assay [7]; greater than 100 µM in assay [8]; greater than 100 µM in [9]; 73.5 µM in assay [10]; greater than 100 µM in assay [11]; greater than 100 µM in [12]. Besides, the TGI in assay [13], in assay [14], in assay [15], in assay [16], in assay [17] and in assay [18] was greater than 100 µM throughout. In assay [19], the TGI was greater than 100 µM.

The values above are taken from PubChem BioAssay (NCI).
